# Measured values as given in US11535627B2, “Pyrimidine derivative compound, pharmaceutically acceptable salt thereof, preparation process thereof, and pharmaceutical composition using the same” (Spark Biopharma, Inc., priority 2016, dated 2022).
# Entries after “also recorded” stand apart in the source; their conditions may differ.
# Assays:
# mTORC1 [1] = experiment: Western blotting, mTORC1 signalling pathway in HEK293T cells; assay type: cell-based
# Procedure: HEK293T cell was cultured in Dulbecco modified eagle medium (DMEM) with 10% (v/v) fetal bovine serum (FBS) and 1% (v/v) antibiotic-antimycotic solution. […] The cells were cultured in 100-mm culture dish in an incubator at 37° C., in 5% CO2.
# Cells were lysed with Radio-ImmunoPrecipitation Assay (RIPA) buffer (50 mM Tris, pH 7.8, 150 mM NaCl, 0.5% deoxycholate, 1% IGEPAL CA-630, protease inhibitor cocktail, and phosphatase inhibitors). Protein was obtained by transferring supernatant after centrifugation at 15000 rpm for 20 min. Protein concentration was measured with Micro BCA™ protein assay kit. Overall protein sampling procedure was done at 4° C. Prepared protein samples were analyzed with SDS-PAGE. Protein after electrophoresis was transferred into nitrocellulose membrane. Membrane was blocked with TBST mixed with 2% BSA over at least 1 h at r.t. Primary antibodies were incubated overnight at 4° C. […] After washing with TBST, HRP-labeled anti-rabbit IgG secondary antibody was treated at room temperature for 1 h. After washing with TBST, developing by Amersham ECL prime solution was done. Chemiluminescent signal was imaged by ChemiDoc™ MP imaging system.
# HEK293T cells = experiment: Cell proliferation assay (BrdU); assay type: cell-based; settings: 5 μM, in the presence of Leu
# Procedure: HEK293T cells were seeded in 96-well plate from CORNING. 24 h after seeding, the compound diluted with DMEM at 5 μM of final concentration was treated in cells while leucine-free DMEM was treated in cells as a control. Cell division assay was done with WSTs assay and BrdU colorimetric kit, following the manufacturer's protocol.
# LRS-RagD interaction = LRS-RagD interaction (Homo sapiens, UniProt Q9P2J5); experiment: ELISA of LRS-RagD interaction; assay type: binding
# Chain of LRS-RagD interaction (Q9P2J5 whole entry): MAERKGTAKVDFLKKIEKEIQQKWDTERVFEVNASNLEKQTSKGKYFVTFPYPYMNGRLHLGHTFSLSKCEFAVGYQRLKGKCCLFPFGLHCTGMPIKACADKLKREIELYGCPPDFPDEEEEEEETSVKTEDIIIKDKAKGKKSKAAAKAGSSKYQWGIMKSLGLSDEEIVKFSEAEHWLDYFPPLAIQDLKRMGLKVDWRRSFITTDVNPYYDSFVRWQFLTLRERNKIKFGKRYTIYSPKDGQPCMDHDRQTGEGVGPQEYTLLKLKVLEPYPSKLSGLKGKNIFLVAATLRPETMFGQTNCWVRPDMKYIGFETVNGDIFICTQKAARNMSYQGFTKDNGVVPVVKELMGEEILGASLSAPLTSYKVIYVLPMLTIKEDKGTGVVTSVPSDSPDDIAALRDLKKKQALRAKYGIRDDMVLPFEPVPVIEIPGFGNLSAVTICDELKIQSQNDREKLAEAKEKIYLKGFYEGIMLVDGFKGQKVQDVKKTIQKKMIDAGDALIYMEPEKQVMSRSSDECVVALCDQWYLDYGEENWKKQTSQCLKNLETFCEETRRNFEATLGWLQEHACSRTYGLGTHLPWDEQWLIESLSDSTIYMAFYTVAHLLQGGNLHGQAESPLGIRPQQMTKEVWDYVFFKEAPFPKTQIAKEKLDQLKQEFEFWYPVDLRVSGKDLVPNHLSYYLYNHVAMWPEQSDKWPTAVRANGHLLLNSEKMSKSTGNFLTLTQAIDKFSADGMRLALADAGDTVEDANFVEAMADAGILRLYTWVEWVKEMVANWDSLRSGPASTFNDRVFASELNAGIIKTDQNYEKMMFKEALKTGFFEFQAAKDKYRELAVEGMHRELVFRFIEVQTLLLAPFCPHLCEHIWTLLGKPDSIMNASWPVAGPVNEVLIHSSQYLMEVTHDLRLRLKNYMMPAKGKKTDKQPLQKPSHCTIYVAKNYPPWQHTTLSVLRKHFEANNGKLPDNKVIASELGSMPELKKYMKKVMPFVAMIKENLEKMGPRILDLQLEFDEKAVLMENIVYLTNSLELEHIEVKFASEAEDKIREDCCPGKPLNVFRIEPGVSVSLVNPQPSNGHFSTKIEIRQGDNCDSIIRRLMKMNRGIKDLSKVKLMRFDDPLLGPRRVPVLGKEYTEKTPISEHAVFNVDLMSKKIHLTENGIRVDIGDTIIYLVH
# Procedure: His-tagged human LRS proteins were diluted in carbonate buffer (100 mM, pH 9.6) to the concentration of 0.5 ng μl^−1. […] Protein from each well was removed and washed three times with PBS mixed with 0.05% Tweed® 20 (PBST), subjected to blocking with PBS containing 5% bovine serum albumin (BSA) for 2 hours. Each well was washed with PBST, followed by the treatment of a compound and GST-tagged human RagD protein simultaneously for 3 hours. GST protein itself was used as a negative control. Each well was treated with GST antibody diluted in PBST and incubated at room temperature for 1 h. After washing with PBST, the HRP-conjugated anti-horse IgG secondary antibody was incubated at room temperature for 1 h. TMB was added to each well for colorimetric development. […] To stop the chemical reaction, the treatment with 1 m H3PO4 was done. Finally, absorbance at 450 nm were measured.
# [2] = tested on: HeLa human cervical cancer cells; experiment: Western blot analysis of LC3 and p62 (autophagy) in HeLa cells; assay type: cell-based
# Procedure: (§1) HEK293T cell was cultured in Dulbecco modified eagle medium (DMEM) with 10% (v/v) fetal bovine serum (FBS) and 1% (v/v) antibiotic-antimycotic solution. HeLa, DU145, and Ca Ski cells were cultured in RPMI 1640 medium with 10% (v/v) FBS and 1% (v/v) antibiotic-antimycotic solution. The cells were cultured in 100-mm culture dish in an incubator at 37° C., in 5% CO2.
# Cells were lysed with Radio-ImmunoPrecipitation Assay (RIPA) buffer (50 mM Tris, pH 7.8, 150 mM NaCl, 0.5% deoxycholate, 1% IGEPAL CA-630, protease inhibitor cocktail, and phosphatase inhibitors). Protein was obtained by transferring supernatant after centrifugation at 15000 rpm for 20 min. Protein concentration was measured with Micro BCA™ protein assay kit. Overall protein sampling procedure was done at 4° C. Prepared protein samples were analyzed with SDS-PAGE. Protein after electrophoresis was transferred into nitrocellulose membrane. Membrane was blocked with TBST mixed with 2% BSA over at least 1 h at r.t. Primary antibodies were incubated overnight at 4° C. The treatment concentration was as follows: Anti-LC3B (ab51520); 1:1000, anti-S6K1 (ab32359); 1:1000, anti-phospho-T389 S6K1 (ab2571); 1:800, anti-p62 (CST 5114); 1:1000, anti-glyceraldehyde-3-phosphate dehydrogenase (GAPDH) (CST 2118); 1:1000, anti-phospho-S65 4E-BP1 (CST 9451); 1:1000, anti-phospho-S757 ULK1 (CST 6888); 1:800, anti-phospho-S473 Akt (CST 4058); 1:1000, anti-phospho-T172 AMPKα (CST 2531). After washing with TBST, HRP-labeled anti-rabbit IgG secondary antibody was treated at room temperature for 1 h. After washing with TBST, developing by Amersham ECL prime solution was done. Chemiluminescent signal was imaged by ChemiDoc™ MP imaging system.
# mTORC1 [3] = experiment: Western blotting, mTORC1 signalling in DU145 cells; assay type: cell-based
# Procedure: as §1
# (§2) Cells were lysed with Radio-ImmunoPrecipitation Assay (RIPA) buffer (50 mM Tris, pH 7.8, 150 mM NaCl, 0.5% deoxycholate, 1% IGEPAL CA-630, protease inhibitor cocktail, and phosphatase inhibitors). Protein was obtained by transferring supernatant after centrifugation at 15000 rpm for 20 min. Protein concentration was measured with Micro BCA™ protein assay kit. Overall protein sampling procedure was done at 4° C. Prepared protein samples were analyzed with SDS-PAGE. Protein after electrophoresis was transferred into nitrocellulose membrane. Membrane was blocked with TBST mixed with 2% BSA over at least 1 h at r.t. Primary antibodies were incubated overnight at 4° C. […]
# [4] = tested on: mTORC2 signaling pathways; experiment: Western blotting, phospho-S473 Akt in HEK293T cells; assay type: cell-based
# Procedure: as §1, §2
# Human LRS proteins = molecular target: T1, Human LRS proteins (Homo sapiens, UniProt Q9P2J5); experiment: Surface plasmon resonance (SPR) binding to LRS; settings: for concentration-dependent binding to LRS (SPR): purified LRS
# T1 construct: His
# T1 sequence (Q9P2J5 whole entry): as above
# Procedure: The dissociation […] constant (KD) toward His-LRS proteins was determined by using SPR instrument (Biacore T100) at the national center for inter-university research facilities (NCIRF) in Seoul National University. The carboxyl group on the surface of CMS chip was able to be replaced with protein by forming reactive succinimide ester with 1-ethyl-3-(3-dimethylaminopropyl)-carbodiimide (EDC) and N-hydroxysuccinimide (NHS). Human LRS proteins (1.5×PBS, pH 7.3) were immobilized on flow cell 2 (imed RU; 12000) by leading to amide bond formation with NHS ester. The residual NHS ester was quenched with 1 M ethanolamine-HCl (pH 8.0). Amide bond formation alone, without any protein t, was performed on flow cell 1 as a control. The immobilization process was proceeded on PBS buffer. After the immobilization of hLRS, compounds were flowed for 60 s at a flow rate of 20 μl min^−1 in various concentrations from 1 μM to […] was then flowed at the same flow rate for 200 s for dissociation of compounds. As a running buffer, 1×PBS (pH 7.3) containing 3% DMSO and 0.005% P2O was used. The experiment was performed at 25° C. Data analysis was done by using Biacore T100 Evaluation software. […] The dissociation constant (KD) was calculated by fitting to the 1:1 binding model.
# AMPK signaling pathways = experiment: Western blotting, phospho-T172 AMPKα in HEK293T cells; assay type: cell-based
# Procedure: as §1, §2
# mTORC1 [5] = experiment: Western blotting, mTORC1 signalling in Ca Ski cells; assay type: cell-based
# Procedure: as §1, §2
# HeLa cells = experiment: mCherry-GFP-LC3 puncta imaging; assay type: cell-based, human; settings: 6 h, 200 nM Rap, 10 nM Baf, 20 μM 21f
# Procedure: HeLa cells were seeded in chambered coverglass from Nunc and incubated for 24 h. mCherry-GFP-LC3 plasmid was transfected to the cells using Lipofectamine™ 2000 solution. Transfection was proceeded according to manufacturer's protocol.
# DeltaVision Elite imaging system was used for the imaging of mCherry-GFP-LC3 transfected HeLa cell. For live-cell imaging, chamber was maintained at 37° C. and in 5% CO2. […] The wavelength range of the used filters is as follows: mCherry (Excitation: 575/25 nm, Emission: 625/45 nm); GFP (Excitation: 475/28 nm, Emission: 525/48 nm). Images were processed and analyzed with SoftWorks deconvolution software.
# [6] = HEK293T cells, 20, 10, 5 and 1 μM, 3 h
# [7] = 6 h, 200 nM Rap, 10 nM Baf, 20 μM 21f, compared with DMSO
structure (smiles),measurement,setting,value
Cc1cc(C)cc(CN2C[C@H]3CN3Cc3c(N(C)Cc4ccccc4)ncnc32)c1 (some centres unmarked) [Compound 21f],inhibition degree against phospho-S757 ULK1,"mTORC1 [1]; HEK293T cells, 0-24 h, 21f 10 μM, rapamycin 500 nM",high inhibition degree
same,"Phospho-T389 S6K1, time course","mTORC1 [1]; HEK293T cells, 10 μM, 0-24 h",reduced in cells treated with 21f as time passed
same,duration of the effect on mTORC1 within cells,"mTORC1 [1]; HEK293T cells, 10 μM, 0-24 h",at least 12 h
same,"phospho-S65 4E-BP1, time course","mTORC1 [1]; HEK293T cells, 10 μM, 0-24 h",reduced in cells treated with 21f as time passed
same,"phospho-S757 ULK1, time course","mTORC1 [1]; HEK293T cells, 10 μM, 0-24 h",reduced in cells treated with 21f as time passed
same,amount of phospho-T389 S6K1,"mTORC1 [1]; HEK293T cells, 20 μM, 3 h",reduced amount of phospho-T389 S6K1
same,phosphorylation suppression of S6K1 by western blotting,"mTORC1 [1]; HEK293T cells, 20 μM, 3 h, phospho-T389 S6K1 relative to DMSO",48.9%
same,Phospho-T389 S6K1,mTORC1 [1]; [6],reduced in cells treated with 21f in a dose-dependent manner
same,phospho-S65 4E-BP1,mTORC1 [1]; [6],reduced in cells treated with 21f in a dose-dependent manner
same,phospho-S757 ULK1,mTORC1 [1]; [6],reduced in cells treated with 21f in a dose-dependent manner
same,cellular division level by BrdU assay,HEK293T cells,suppressed cell proliferation even in the presence of Leu; also recorded: cellular division was inhibited as treatment time passed
same,dose-dependent inhibition of the LRS-RagD interaction (dose-response curves in ELISA),LRS-RagD interaction,inhibit the LRS-RagD interaction in a dose-dependent manner
same,reduction of LRS-RagD interaction by ELISA,LRS-RagD interaction,30.2%
same,LC3 I/LC3 II ratio,[2]; [7],lowering LC3 I/LC3 II ratio
same,p62 level,[2]; [7],stimulated the degradation of p62; also recorded: reducing p62 level
same,cellular level of LC3 II,[2]; in the presence of Leu,increased the cellular level of LC3 II
same,"western blotting results, procedure of FIG. 15d",mTORC1 [3],same as those from HEK293T cells
same,"phospho-S473 Akt, time course","[4]; HEK293T cells, 10 μM, 0-24 h",no effects
same,phospho-S473 Akt,[4]; [6],no effects
same,Kd,Human LRS proteins,4.5 µM
same,concentration-dependent binding to LRS (SPR),Human LRS proteins,concentration-dependent binding to LRS
same,"phospho-T172 AMPKα, time course","AMPK signaling pathways; HEK293T cells, 10 μM, 0-24 h",no effects
same,phospho-T172 AMPKα,AMPK signaling pathways; [6],no effects
same,"western blotting results, procedure of FIG. 15d",mTORC1 [5],same as those from HEK293T cells
same,mCherry and GFP fluorescence (mCherry-GFP-LC3),HeLa cells,red fluorescence
CN(Cc1ccccc1)c1ncnc2c1C1OC[C@@H](CN2)N1C(=O)OC(C)(C)C [Compound 14f],dose-dependent inhibition of the LRS-RagD interaction (dose-response curves in ELISA),LRS-RagD interaction,did not inhibit the LRS-RagD interaction in a dose-dependent manner
same,concentration-dependent binding to LRS (SPR),Human LRS proteins,did not bind to LRS in a concentration-dependent manner
CN(Cc1ccccc1)c1ncnc2c1[C@@H]1OC[C@H](CN2)N1C(=O)NCc1ccccc1 [Compound 15f],dose-dependent inhibition of the LRS-RagD interaction (dose-response curves in ELISA),LRS-RagD interaction,did not inhibit the LRS-RagD interaction in a dose-dependent manner
same,melting point,,67 to 69 °C
CN(Cc1ccccc1)c1ncnc2c1[C@@H]1OC[C@H](CN2)N1S(=O)(=O)c1cccc([N+](=O)[O-])c1,melting point,,101 to 103 °C
CN(Cc1ccccc1)c1ncnc2c1CN1C(=O)COC[C@@H]1CN2 [Compound 19f],dose-dependent inhibition of the LRS-RagD interaction (dose-response curves in ELISA),LRS-RagD interaction,did not inhibit the LRS-RagD interaction in a dose-dependent manner
same,concentration-dependent binding to LRS (SPR),Human LRS proteins,did not bind to LRS in a concentration-dependent manner
